# Assay results as given in patent publication US8168199B2, “Dipeptidyl peptidase IV inhibitors for the treatment of schizophrenia and depression” (priority 2000, dated 2012).
# “Also recorded” adds a separate entry of the source.
# Tested on: Male WistarF/Han (WF) rats
# Assay: Response to novelty (Open field test), i.c.v. P32/98
# Type: in vivo, rat
# Method: Animals. Male WistarF/Han (WF) rats (Central Animal Laboratory, Hannover Medical School, Hannover, Germany, weighing 350-390 g, were housed in a sound-proof, temperature controlled (24.0±0.5° C.) room under specific pathogen free conditions with a 12/12 h dark/light cycle (lights on at 07.00 with illumination level of 80 Lux). Food (Altromin lab chow pellets) and tap water were available ad libitum. Under ketamine/xylasine (100/5 mg/kg, i.p.) anesthesia, the rats were fixed in a Kopf stereotaxic frame and implanted with cannulae (Plastic One, Inc., Roanoke, Va., USA) above the lateral ventricle. All research and animal care procedures were approved by the Lower Saxony district government (Hannover, Germany) and followed principles described in the European Community's Council Directive of 24 Nov. 1986 (86/609/EEC).
# Surgery and i.c.v. application. For surgery, rats were anesthetized and prepared with i.c.v. cannulaes (coordinates: A: −0.7 mm caudal, L: 1.4 mm lateral to bregma; and V: 3.2 mm ventral to the skull surface; tooth bar +3.0 above ear bars) using standard stereotaxic procedures as described in detail elsewhere (von Hörsten et al., 1998a,b,c). […]
# Response to novelty (Open field test). […] Spontaneous activity during a single continuous test session of 15 min was recorded using a video path analyzer system (E61-21 Video Path Analyser system, Coulbourn instruments, PA, U.S.A.). […] Furthermore, the total incidence of fecal boli was counted after each session and the incidence and duration (sec) of grooming behavior was simultaneously recorded from a video monitor by a person blind to the treatment of the animals (von Hörsten et al., 1998c).
# Statistical analysis. For statistical analysis, behavioral raw data from every test minute were analyzed by two-way analyses of variance (ANOVA) for repeated measures (factors: treatment and time as a repeated measurement). Data obtained as totals from a session were analyzed by one-way (factor: treatment) ANOVA. […]
smiles,measurement,setting,value
CC[C@H](C)[C@H](N)C(=O)N1CCSC1 [P32/98],activity in the open field (distance traveled),"i.c.v. 0.05, 5, 500 nmol, 60 min before test, four consecutive minutes, vs aCSF",no effect on activity; also recorded: no significant effect
same,time spent close to the wall in the open field,"i.c.v. 0.05, 5, 500 nmol, 60 min before test, sum of four consecutive minutes, vs aCSF",dose-dependent reduction; also recorded: significant effect
same,dosage already effective on time spent close to the wall,"i.c.v., open field",50 pmol
